From ChEMBL document CHEMBL5465560, “Selectivity Literature for EUbOPEN Chemogenomic Library” (2024)
Blank lines part the entries; values can stand above or below the compound they belong to.

Experiments:
[1] = biological target: Protein-tyrosine kinase 2-beta (Homo sapiens) (UniProt Q14289); assay: Selectivity interaction (Kinase panel (Z-LYTE Assay)) EUB0001632a PTK2B; conditions: at 10 µM
[2] = biological target: Vasopressin V1a receptor (Homo sapiens) (UniProt P37288); assay: Selectivity interaction (Eurofins CEREP Diversity Profile (receptors and ion channels)) EUB0000279b AVPR1A; conditions: at 10 µM
[3] = biological target: T1, Ephrin type-A receptor 6 (Homo sapiens) (UniProt Q9UF33); conditions: at 10 µM
T1 sequence (whole entry): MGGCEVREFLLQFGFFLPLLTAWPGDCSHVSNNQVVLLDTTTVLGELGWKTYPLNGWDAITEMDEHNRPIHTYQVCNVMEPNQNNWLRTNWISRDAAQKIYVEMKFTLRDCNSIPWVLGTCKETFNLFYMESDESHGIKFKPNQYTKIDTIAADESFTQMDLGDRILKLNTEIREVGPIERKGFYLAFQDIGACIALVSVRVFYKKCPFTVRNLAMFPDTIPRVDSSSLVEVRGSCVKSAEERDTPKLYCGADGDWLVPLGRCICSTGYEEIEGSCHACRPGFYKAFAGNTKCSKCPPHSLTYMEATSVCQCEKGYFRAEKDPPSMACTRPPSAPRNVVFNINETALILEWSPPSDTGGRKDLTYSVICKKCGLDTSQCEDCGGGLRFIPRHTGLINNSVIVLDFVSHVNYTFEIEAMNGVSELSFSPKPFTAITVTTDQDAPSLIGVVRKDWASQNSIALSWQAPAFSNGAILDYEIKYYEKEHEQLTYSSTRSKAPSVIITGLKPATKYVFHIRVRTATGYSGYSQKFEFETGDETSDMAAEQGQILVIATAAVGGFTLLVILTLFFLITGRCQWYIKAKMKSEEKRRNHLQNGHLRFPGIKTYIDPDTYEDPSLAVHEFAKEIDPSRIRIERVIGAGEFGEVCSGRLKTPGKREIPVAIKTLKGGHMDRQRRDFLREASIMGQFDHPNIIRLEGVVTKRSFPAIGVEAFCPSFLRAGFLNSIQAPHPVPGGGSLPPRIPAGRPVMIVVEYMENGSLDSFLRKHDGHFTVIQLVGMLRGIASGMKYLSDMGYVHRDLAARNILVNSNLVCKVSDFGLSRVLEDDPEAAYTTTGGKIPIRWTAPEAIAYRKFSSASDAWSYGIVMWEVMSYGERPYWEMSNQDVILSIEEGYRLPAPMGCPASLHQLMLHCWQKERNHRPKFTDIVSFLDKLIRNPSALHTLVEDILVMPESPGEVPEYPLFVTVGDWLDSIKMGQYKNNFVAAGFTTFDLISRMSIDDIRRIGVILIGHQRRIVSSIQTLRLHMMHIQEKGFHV

[4] = biological target: Calcium/calmodulin-dependent protein kinase type II subunit delta (Homo sapiens) (UniProt Q13557); assay: Selectivity interaction (Kinase panel (Invitrogen)) EUB0000639a CAMK2D; conditions: at 200 nM
[5] = biological target: G protein-coupled receptor kinase 4 (Homo sapiens) (UniProt P32298); assay: Selectivity interaction (KinomeScan (DiscoverX)) EUB0000655a GRK4; conditions: at 10 µM
[6] = biological target: T2, Serine/threonine-protein kinase tousled-like 1 (Homo sapiens) (UniProt Q9UKI8); assay: Selectivity interaction (Kinase panel (KiNativ target engagement assay in Jurkat cells)) EUB0001635a TLK1; type: cell-based; conditions: at 1 µM
T2 sequence (whole entry): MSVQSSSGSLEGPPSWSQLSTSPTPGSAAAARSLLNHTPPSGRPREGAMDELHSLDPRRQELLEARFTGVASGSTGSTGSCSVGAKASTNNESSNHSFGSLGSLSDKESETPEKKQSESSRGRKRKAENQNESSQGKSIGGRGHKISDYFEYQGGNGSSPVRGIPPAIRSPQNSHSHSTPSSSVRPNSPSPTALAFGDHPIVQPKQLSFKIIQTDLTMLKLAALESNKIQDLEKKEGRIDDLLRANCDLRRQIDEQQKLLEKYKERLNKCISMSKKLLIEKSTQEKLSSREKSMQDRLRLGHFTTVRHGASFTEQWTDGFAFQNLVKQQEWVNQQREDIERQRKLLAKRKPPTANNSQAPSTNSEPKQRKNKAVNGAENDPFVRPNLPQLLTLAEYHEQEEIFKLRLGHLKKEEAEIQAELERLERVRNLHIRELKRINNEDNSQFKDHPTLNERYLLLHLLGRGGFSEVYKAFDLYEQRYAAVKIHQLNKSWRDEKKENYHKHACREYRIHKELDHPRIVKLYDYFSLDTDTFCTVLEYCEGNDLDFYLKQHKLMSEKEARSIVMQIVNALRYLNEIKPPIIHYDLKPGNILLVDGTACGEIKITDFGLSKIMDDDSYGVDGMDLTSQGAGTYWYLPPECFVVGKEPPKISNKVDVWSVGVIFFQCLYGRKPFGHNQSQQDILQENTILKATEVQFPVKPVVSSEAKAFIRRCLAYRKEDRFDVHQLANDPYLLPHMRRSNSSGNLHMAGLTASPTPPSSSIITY

[7] = biological target: Mitogen-activated protein kinase 9 (Homo sapiens, UniProt P45984); conditions: at 10 µM
[8] = biological target: T3, cGMP-dependent protein kinase 1 (Homo sapiens) (UniProt Q13976); assay: Selectivity interaction (KinomeScan (DiscoverX)) EUB0001619a PRKG1; conditions: at 1 µM
T3 sequence (whole entry): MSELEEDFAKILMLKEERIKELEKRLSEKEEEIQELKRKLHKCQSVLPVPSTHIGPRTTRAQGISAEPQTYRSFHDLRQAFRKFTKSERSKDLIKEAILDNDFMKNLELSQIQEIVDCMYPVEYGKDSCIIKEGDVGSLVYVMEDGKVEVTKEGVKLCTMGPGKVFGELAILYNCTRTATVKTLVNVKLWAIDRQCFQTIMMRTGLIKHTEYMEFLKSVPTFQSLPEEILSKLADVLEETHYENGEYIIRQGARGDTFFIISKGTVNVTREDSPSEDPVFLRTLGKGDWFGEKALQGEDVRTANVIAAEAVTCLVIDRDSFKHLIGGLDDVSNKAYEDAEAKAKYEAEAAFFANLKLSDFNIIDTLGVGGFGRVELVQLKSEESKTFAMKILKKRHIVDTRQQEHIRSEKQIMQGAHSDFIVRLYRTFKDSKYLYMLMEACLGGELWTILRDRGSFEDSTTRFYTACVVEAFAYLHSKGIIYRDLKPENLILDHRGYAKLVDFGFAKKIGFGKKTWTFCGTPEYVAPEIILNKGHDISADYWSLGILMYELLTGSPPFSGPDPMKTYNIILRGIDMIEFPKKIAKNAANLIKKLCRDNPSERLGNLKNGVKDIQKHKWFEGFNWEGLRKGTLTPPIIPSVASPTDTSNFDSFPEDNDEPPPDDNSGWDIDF

G protein-coupled receptor kinase 4 (Homo sapiens), sequence (P32298 whole entry, looked up): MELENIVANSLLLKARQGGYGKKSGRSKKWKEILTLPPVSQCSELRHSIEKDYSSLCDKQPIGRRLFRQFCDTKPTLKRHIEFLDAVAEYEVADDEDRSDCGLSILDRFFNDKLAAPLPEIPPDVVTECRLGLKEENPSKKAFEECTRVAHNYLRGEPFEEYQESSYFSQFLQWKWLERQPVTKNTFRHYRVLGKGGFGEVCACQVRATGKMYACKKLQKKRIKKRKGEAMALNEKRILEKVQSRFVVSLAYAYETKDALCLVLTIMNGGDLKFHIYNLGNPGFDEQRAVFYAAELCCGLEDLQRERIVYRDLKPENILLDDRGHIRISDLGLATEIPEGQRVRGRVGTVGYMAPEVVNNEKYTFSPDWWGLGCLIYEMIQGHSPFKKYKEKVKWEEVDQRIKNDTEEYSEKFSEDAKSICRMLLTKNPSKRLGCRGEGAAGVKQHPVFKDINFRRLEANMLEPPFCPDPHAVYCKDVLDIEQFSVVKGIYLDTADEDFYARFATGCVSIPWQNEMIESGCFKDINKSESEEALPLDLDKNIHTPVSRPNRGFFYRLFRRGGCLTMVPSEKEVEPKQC
Vasopressin V1a receptor (Homo sapiens), sequence (P37288 whole entry, looked up): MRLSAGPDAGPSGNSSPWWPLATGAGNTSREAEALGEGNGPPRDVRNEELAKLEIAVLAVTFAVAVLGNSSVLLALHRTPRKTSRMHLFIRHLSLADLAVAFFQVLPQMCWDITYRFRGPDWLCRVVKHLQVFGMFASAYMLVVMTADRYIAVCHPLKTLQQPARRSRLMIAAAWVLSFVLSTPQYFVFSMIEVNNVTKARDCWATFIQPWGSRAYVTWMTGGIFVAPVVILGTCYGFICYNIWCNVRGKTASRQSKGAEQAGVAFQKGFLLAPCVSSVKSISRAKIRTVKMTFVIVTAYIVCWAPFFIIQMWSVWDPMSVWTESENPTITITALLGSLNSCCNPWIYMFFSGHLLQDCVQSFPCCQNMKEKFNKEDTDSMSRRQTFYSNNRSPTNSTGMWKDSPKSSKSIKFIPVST
Protein-tyrosine kinase 2-beta (Homo sapiens), sequence (Q14289 whole entry, looked up): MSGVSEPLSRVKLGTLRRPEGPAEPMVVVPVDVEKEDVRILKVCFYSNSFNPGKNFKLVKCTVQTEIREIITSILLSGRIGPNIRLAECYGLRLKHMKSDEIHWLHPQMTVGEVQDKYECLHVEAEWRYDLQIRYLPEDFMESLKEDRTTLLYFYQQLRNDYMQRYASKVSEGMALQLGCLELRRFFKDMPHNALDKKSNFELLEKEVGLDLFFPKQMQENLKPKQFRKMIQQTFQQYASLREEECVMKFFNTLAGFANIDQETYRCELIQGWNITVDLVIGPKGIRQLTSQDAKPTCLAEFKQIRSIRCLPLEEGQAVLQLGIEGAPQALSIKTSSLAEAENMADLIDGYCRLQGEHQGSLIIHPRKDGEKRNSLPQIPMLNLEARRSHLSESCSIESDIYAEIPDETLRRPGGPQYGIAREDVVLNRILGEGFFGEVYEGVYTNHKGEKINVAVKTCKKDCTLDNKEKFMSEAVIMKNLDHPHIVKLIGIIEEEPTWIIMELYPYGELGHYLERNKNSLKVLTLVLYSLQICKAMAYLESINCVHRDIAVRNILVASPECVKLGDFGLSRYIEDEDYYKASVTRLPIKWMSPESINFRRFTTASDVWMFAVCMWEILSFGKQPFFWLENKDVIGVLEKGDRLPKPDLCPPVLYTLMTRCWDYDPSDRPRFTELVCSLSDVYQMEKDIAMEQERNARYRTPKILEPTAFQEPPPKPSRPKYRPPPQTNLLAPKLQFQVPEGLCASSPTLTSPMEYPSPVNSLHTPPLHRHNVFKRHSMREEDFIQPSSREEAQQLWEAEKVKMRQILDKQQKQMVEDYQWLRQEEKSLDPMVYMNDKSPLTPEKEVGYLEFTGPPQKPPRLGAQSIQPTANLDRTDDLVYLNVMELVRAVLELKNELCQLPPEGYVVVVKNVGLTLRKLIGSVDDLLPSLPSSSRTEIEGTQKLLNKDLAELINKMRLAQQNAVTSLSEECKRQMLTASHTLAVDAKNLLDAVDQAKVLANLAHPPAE
Mitogen-activated protein kinase 9, sequence (P45984 whole entry, looked up): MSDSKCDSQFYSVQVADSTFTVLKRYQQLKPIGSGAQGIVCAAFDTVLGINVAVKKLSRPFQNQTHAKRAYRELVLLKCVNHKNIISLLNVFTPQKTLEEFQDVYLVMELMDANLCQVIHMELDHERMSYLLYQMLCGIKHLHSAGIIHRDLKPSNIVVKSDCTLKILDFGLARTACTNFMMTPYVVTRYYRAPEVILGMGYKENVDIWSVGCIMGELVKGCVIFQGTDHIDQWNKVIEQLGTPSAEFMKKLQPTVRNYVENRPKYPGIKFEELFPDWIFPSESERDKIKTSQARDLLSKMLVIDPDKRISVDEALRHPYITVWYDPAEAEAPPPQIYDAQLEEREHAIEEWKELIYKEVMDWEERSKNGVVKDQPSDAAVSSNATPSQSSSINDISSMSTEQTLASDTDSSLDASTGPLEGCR
Calcium/calmodulin-dependent protein kinase type II subunit delta (Homo sapiens), sequence (Q13557 whole entry): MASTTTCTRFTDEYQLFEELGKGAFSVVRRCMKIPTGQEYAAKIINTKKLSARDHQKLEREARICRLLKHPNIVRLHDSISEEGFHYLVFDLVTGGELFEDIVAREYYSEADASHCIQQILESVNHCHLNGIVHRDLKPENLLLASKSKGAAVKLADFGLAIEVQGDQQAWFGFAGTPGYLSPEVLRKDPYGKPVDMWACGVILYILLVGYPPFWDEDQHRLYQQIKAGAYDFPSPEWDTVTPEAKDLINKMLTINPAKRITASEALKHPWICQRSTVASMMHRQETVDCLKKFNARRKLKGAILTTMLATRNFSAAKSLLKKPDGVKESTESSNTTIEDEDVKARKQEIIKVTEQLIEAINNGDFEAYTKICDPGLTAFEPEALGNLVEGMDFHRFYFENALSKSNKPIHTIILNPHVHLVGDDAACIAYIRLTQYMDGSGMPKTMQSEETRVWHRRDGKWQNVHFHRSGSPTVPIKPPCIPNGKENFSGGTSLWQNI

SMILES: CC[C@@H]1[C@H](F)C(=O)N[C@@H]1COc1nccc2cc(C(N)=O)c(OC)cc12 [ZIMLOVISERTIB]
% of inhibition [4]: 24.9%

SMILES: CN(C)CCOc1ccc(-c2nc(-c3ccncc3)c(-c3ccc4c(c3)CC/C4=N\O)[nH]2)cc1
% of control [5]: 100%

SMILES: C=CC(=O)Nc1ccc(C(=O)Nc2[nH]nc3c2CN(C(=O)N[C@H](CN(C)C)c2ccccc2)C3(C)C)cc1
% of engagement ([6]; Selectivity number of off-targets 0.0, Selectivity number of targets 233.0, Source Knowledge https://www.sciencedirect.com/science/article/pii/S2451945619300674?via%3Dihub): 12.6% | % of engagement [6]: 13.2%

SMILES: Cc1cc([C@@H](C)Nc2ccccc2C(=O)O)c2nc(N3CCOCC3)cc(=O)n2c1 [AZD-6482]
% of control [7]: 66%

SMILES: N#Cc1cccc(-c2c[nH]c3ncnc(N4CCOCC4)c23)c1
% of control [8]: 99%

The remaining lines, values ahead:

% of control [1]: 6.24%
SMILES: Cn1cc(-n2cnc3c(NCc4nc5cc(Cl)c(Cl)cc5[nH]4)nc(N4CCOCC4)nc32)cn1

% of control [2]: 89%
SMILES: CC(=O)c1cc(-c2ccccc2OCC2CC2)c2ncccn12

% of control [3]: 100%
SMILES: CCN(CC)CCCCNc1ncc2cc(-c3cc(OC)cc(OC)c3)c(NC(=O)NC(C)(C)C)nc2n1
